Measurements from US20240400560A1, “BICYCLIC HETEROCYCLIC DERIVATIVE HAVING VIRAL GROWTH INHIBITORY ACTIVITY AND PHARMACEUTICAL COMPOSITION CONTAINING SAME” (Shionogi & Co., Ltd., priority 2021, published 2024).
Read-outs that look alike come from different tables or passages of the source.

Columns and labels:
SARS-CoV-2 3CL protease = SARS-CoV-2 3CL protease (Severe acute respiratory syndrome coronavirus 2, UniProt P0DTD1); test: Inhibitory activity test against SARS-CoV-2 3CL proteases; type: biochemical
SARS-CoV-2 = test: Inhibitory activity of cytopathic effect (CPE) in HEK293T/ACE2-TMPRSS2 cells; type: cell-based; conditions: Severe acute respiratory syndrome coronavirus 2, HEK-293T, 72 h
[1] = IC50 (50% SARS-CoV-2 3CL protease inhibitory concentration)
[2] = read-out: IC50 (50% SARS-CoV-2 3CL protease inhibitory concentration)
[3] = HEK293T/ACE2-TMPRSS2 cells, cultured 3 days, CellTiter-Glo 2.0 luminescence, read-out: EC50 (50% SARS-CoV-2 infected cell death inhibitory concentration)
[4] = read-out: EC50 (50% SARS-CoV-2 infected cell death inhibitory concentration)
[5] = 50% SARS-CoV-2 infected cell death inhibitory concentration, HEK293T/ACE2-TMPRSS2 cells, CellTiter-Glo 2.0 after 3 days culture, read-out: EC50

Row | SMILES | IC50 (SARS-CoV-2 3CL protease; [2]) [µM] | EC50 (SARS-CoV-2; [3]) [µM] | EC50 (SARS-CoV-2; [5]) [µM] | also measured
1 | COc1nc(N2[C@@H]3CC[C@H]2CNC3)cc2c1c(=O)n(-c1cnc3ccc(Cl)cn13)c(=O)n2Cc1cc(F)c(F)c(F)c1 [Compound I-0671] |  |  |  | IC50 (SARS-CoV-2 3CL protease; [1]): 0.0033 µM; EC50 (SARS-CoV-2): 0.021 µM
2 | COc1nc(-c2cc(C#N)ccc2Cl)cc2c1c(=O)n(-c1cnc3cc(F)ccn13)c(=O)n2Cc1cc(F)c(F)c(F)c1 [Compound I-0672] | < 0.1 | < 0.1 |  | 
3 | COc1nc(N2CC[C@@H](F)C2)cc2c1c(=O)n(-c1cnc3cc(F)ccn13)c(=O)n2Cc1cc(F)c(F)c(F)c1 [Compound I-0673] | < 0.1 | < 0.1 |  | 
4 | COc1nc(-c2cc(C#N)ccc2Cl)cc2c1c(=O)n(-c1cnc3ccc(F)cn13)c(=O)n2Cc1cc(F)c(F)c(F)c1 [Compound I-0680] | < 0.1 | < 0.1 |  | 
5 | Cn1c(-c2cc(C#N)ccc2Cl)cc2c(c1=O)c(=O)n(-c1cnc3ccc(F)cn13)c(=O)n2Cc1cc(F)c(F)c(F)c1 [Compound I-0681] | < 0.1 | < 0.1 |  | 
6 | COc1nc(N2[C@@H]3CC[C@H]2CNC3)cc2c1c(=O)n(-c1cnc3cc(F)ccn13)c(=O)n2Cc1cc(F)c(F)c(F)c1 [Compound I-0682] |  |  |  | IC50 (SARS-CoV-2 3CL protease; [1]): < 0.1 µM; EC50 (SARS-CoV-2; [4]): < 0.1 µM
7 | COc1nc(N2[C@@H]3CC[C@H]2CNC3)cc2c1c(=O)n(-c1cnc3cc(Cl)ccn13)c(=O)n2Cc1cc(F)c(F)c(F)c1 [Compound I-0683] |  |  |  | IC50 (SARS-CoV-2 3CL protease; [1]): 0.0099 µM; EC50 (SARS-CoV-2): 0.0454 µM
8 | Cn1cnc(Cn2c(=O)c3ncc(N4C[C@H]5C[C@@H]4CN5)nc3n(Cc3cc(F)c(F)c(F)c3)c2=O)n1 [Compound I-0684] | 0.37 |  | 4.58 | 
9 | Cn1cnc(Cn2c(=O)c3nc(OCC#N)c(-c4cc(C#N)ccc4Cl)cc3n(Cc3cc(F)c(F)c(F)c3)c2=O)n1 [Compound I-0685] | 0.028 |  | 0.0822 | 
10 | CCCn1c(-c2cc(C#N)ccc2Cl)cc2c(c1=O)c(=O)n(-c1cncc(Cl)c1)c(=O)n2Cc1cc(F)c(F)c(F)c1 [Compound I-0686] | 0.0017 |  | 0.0224 | 
11 | CCOc1nc2c(=O)n(Cc3ncn(C)n3)c(=O)n(Cc3cc(F)c(F)c(F)c3)c2cc1-c1cc(C#N)ccc1Cl [Compound I-0692] | < 0.1 | < 0.1 |  | 
12 | Cn1cnc(Cn2c(=O)c3c(cc(-c4cc(C#N)ccc4Cl)c[n+]3[O-])n(Cc3cc(F)c(F)c(F)c3)c2=O)n1 [Compound I-0697] | 0.1 to 1 | 1 to 10 |  | 
13 | COc1nc2c(=O)n(Cc3ncn(C)n3)c(=O)n(Cc3cc(F)c(F)c(F)c3)c2cc1-c1cc(C#N)ccc1Cl [Compound I-0699] | < 0.1 | < 0.1 |  | 
14 | COc1nc2c(=O)n(Cc3ncn(C)n3)c(=O)n(Cc3cc(F)c(F)c(Cl)c3)c2cc1-c1cc2c(cc1Cl)NC(=O)C2 [Compound I-0700] | 0.00092 |  | 0.0245 | 
15 | COc1nc2c(=O)n(Cc3ncn(C)n3)c(=O)n(Cc3cc(F)c(F)c(Cl)c3)c2cc1-c1cc(C(C)(C)O)ccc1Cl [Compound I-0701] | 0.005 |  | 0.016 | 
16 | C=Cc1nc2c(=O)n(Cc3ncn(C)n3)c(=O)n(Cc3cc(F)c(F)c(F)c3)c2cc1-c1cc(C#N)ccc1Cl [Compound I-0705] | < 0.1 | < 0.1 |  | 
17 | COc1c(-c2cc(C#N)ccc2Cl)cc2c(c(=O)n(Cc3ncn(C)n3)c(=O)n2Cc2cc(F)c(F)c(F)c2)[n+]1[O-] [Compound I-0709] | 0.1 to 1 | 1 to 10 |  | 
18 | Cn1cnc(Cn2c(=O)c3c4nc[nH]c4c(-c4cc(C#N)ccc4Cl)cc3n(Cc3cc(F)c(F)c(F)c3)c2=O)n1 [Compound I-0712] | 0.1 to 1 | 0.1 to 1 |  | 
19 | COc1nc2c(=O)n(Cc3ncn(C)n3)c(=O)n(Cc3cc(Cl)ccc3Cl)c2cc1-c1cc(C#N)ccc1Cl [Compound I-0713] | < 0.1 | 0.1 to 1 |  | 
20 | COc1nc2c(=O)n(Cc3ncn(C)n3)c(=O)n(Cc3cc(Cl)ccc3C)c2cc1-c1cc(C#N)ccc1Cl [Compound I-0717] | < 0.1 | < 0.1 |  | 
21 | COc1nc2c(=O)n(Cc3ncn(C)n3)c(=O)n(Cc3cc(F)c(F)c(C#N)c3)c2cc1-c1cc(C#N)ccc1Cl [Compound I-0721] | < 0.1 | < 0.1 |  | 
22 | COc1nc2c(=O)n(Cc3ncn(C)n3)c(=O)n(Cc3cc(C#N)c(F)cc3Cl)c2cc1-c1cc(C#N)ccc1Cl [Compound I-0722] | < 0.1 | < 0.1 |  | 

Row | SMILES | IC50 (SARS-CoV-2 3CL protease; [2]) [µM] | EC50 (SARS-CoV-2; [3]) [µM] | EC50 (SARS-CoV-2; [5]) [µM] | also measured
23 | COc1nc2c(=O)n(Cc3ncn(C)n3)c(=O)n(Cc3cc(C#N)c(F)cc3C)c2cc1-c1cc(C#N)ccc1Cl [Compound I-0723] | < 0.1 | < 0.1 |  | 
24 | COc1nc2c(=O)n(Cc3ncn(C)n3)c(=O)n(Cc3ccc(F)c(Cl)c3)c2cc1-c1cc(C#N)ccc1Cl [Compound I-0726] | < 0.1 | < 0.1 |  | 
25 | Cn1c(-c2cc(C#N)ccc2Cl)cc2c(c1=O)c(=O)n(-c1cnc3cc(F)ccn13)c(=O)n2Cc1cc(F)c(F)c(F)c1 [Compound I-0727] | 0.0011 |  | 0.102 | 
26 | COc1nc(N2CCC(F)(F)C2)cc2c1c(=O)n(-c1cnc3cc(F)ccn13)c(=O)n2-c1ccc(F)c(Cl)c1 [Compound I-0728] | 0.0051 |  | 0.00765 | 
27 | COc1nc(N2[C@@H]3CC[C@H]2CNC3)cc2c1c(=O)n(-c1cnc3cc(F)ccn13)c(=O)n2-c1ccc(F)c(Cl)c1 [Compound I-0729] |  |  |  | IC50 (SARS-CoV-2 3CL protease; [1]): < 0.1 µM; EC50 (SARS-CoV-2; [4]): < 0.1 µM
28 | COc1nc(N2CC[C@@H](O)C2)cc2c1c(=O)n(-c1cnc3cc(F)ccn13)c(=O)n2Cc1cc(F)c(F)c(F)c1 [Compound I-0730] | < 0.1 | < 0.1 |  | 
29 | COc1nc(N2CC[C@@H](OC)C2)cc2c1c(=O)n(-c1cnc3cc(F)ccn13)c(=O)n2Cc1cc(F)c(F)c(F)c1 [Compound I-0731] | < 0.1 | < 0.1 |  | 
30 | COc1nc(N2CC[C@@H](C#N)C2)cc2c1c(=O)n(-c1cnc3cc(F)ccn13)c(=O)n2Cc1cc(F)c(F)c(F)c1 [Compound I-0732] | < 0.1 | < 0.1 |  | 
31 | COc1nc(N2CC[C@@H](O)C2)cc2c1c(=O)n(-c1cnc3cc(F)ccn13)c(=O)n2Cc1cc(F)c(F)c(Cl)c1 [Compound I-0734] | < 0.1 | < 0.1 |  | 
32 | COc1nc(N2CC[C@@H](OC)C2)cc2c1c(=O)n(-c1cnc3cc(F)ccn13)c(=O)n2Cc1cc(F)c(F)c(Cl)c1 [Compound I-0735] | < 0.1 | < 0.1 |  | 
33 | COc1nc(N2CC[C@@H](C#N)C2)cc2c1c(=O)n(-c1cnc3cc(F)ccn13)c(=O)n2Cc1cc(F)c(F)c(Cl)c1 [Compound I-0736] | 0.012 |  | 0.0201 | 
34 | CCn1c(-c2cc(C#N)ccc2Cl)cc2c(c1=O)c(=O)n(-c1cnc3cc(F)ccn13)c(=O)n2Cc1cc(F)c(F)c(F)c1 [Compound I-0739] | 0.00098 |  | 0.115 | 
35 | COc1nc(N2CC[C@@H](OC)C2)cc2c1c(=O)n(-c1cnc3cc(F)ccn13)c(=O)n2-c1ccc(F)c(Cl)c1 [Compound I-0740] | < 0.1 | < 0.1 |  | 
36 | Cn1c(-c2cc(C#N)ccc2Cl)cc2c(c1=O)c(=O)n(-c1cnc3ccc(Cl)cn13)c(=O)n2Cc1cc(F)c(F)c(F)c1 [Compound I-0741] | 0.0043 |  | 0.105 | 
37 | COc1nc(N2CC[C@H](OC)C2)cc2c1c(=O)n(-c1cnc3cc(F)ccn13)c(=O)n2-c1ccc(F)c(Cl)c1 [Compound I-0742] | < 0.1 | < 0.1 |  | 
38 | COc1nc(N2CCOCC2)cc2c1c(=O)n(-c1cnc3cc(F)ccn13)c(=O)n2-c1ccc(F)c(Cl)c1 [Compound I-0743] | 0.022 |  | 0.0193 | 
39 | COc1nc(N2CC[C@@H](OC)C2)cc2c1c(=O)n(-c1cncc(Cl)c1)c(=O)n2-c1ccc(F)c(Cl)c1 [Compound I-0744] | 0.0014 |  | 0.00694 | 
40 | COc1nc(N2CC[C@@H](O)C2)cc2c1c(=O)n(-c1cnc3cc(F)ccn13)c(=O)n2-c1ccc(F)c(Cl)c1 [Compound I-0745] | < 0.1 | < 0.1 |  | 
41 | COc1nc(N2CC[C@@H](F)C2)cc2c1c(=O)n(-c1cnc3cc(F)ccn13)c(=O)n2-c1ccc(F)c(Cl)c1 [Compound I-0746] | 0.0014 |  | 0.0056 | 
42 | COc1nc(N2C[C@@H](F)[C@@H](F)C2)cc2c1c(=O)n(-c1cnc3cc(F)ccn13)c(=O)n2-c1ccc(F)c(Cl)c1 [Compound I-0747] | < 0.1 | < 0.1 |  | 
43 | COc1nc(N2C[C@H](F)[C@@H](F)C2)cc2c1c(=O)n(-c1cnc3cc(F)ccn13)c(=O)n2-c1ccc(F)c(Cl)c1 [Compound I-0748] | < 0.1 | < 0.1 |  | 
